In brackets after ≈: the same amount, converted by molar mass.
What was measured:
Format in all cases: functional
Plutella xylostella [1] = assay: Insecticidal activity against third-instar larval stage of Plutella xylostella (diamondback moth) in cabbage leaves assessed as mortality at 10 ug/ml treated for 10 secs before larva infestation measured after 3 days by dipping method; conditions: 72 h
Plutella xylostella [2] = assay: Insecticidal activity against third-instar larval stage of Plutella xylostella (diamondback moth) in cabbage leaves assessed as mortality at 100 ug/ml treated for 10 secs before larva infestation measured after 2 days by dipping method; conditions: 48 h
Plutella xylostella [3] = assay: Insecticidal activity against third-instar larval stage of Plutella xylostella (diamondback moth) in cabbage leaves assessed as mortality at 10 ug/ml treated for 10 secs before larva infestation measured after 2 days by dipping method; conditions: 48 h
Plutella xylostella [4] = assay: Insecticidal activity against third-instar larval stage of Plutella xylostella (diamondback moth) in cabbage leaves assessed as mortality at 100 ug/ml treated for 10 secs before larva infestation measured after 3 days by dipping method; conditions: 72 h
Plutella xylostella [5] = assay: Insecticidal activity against third-instar larval stage of Plutella xylostella (diamondback moth) in cabbage leaves assessed as mortality at 0.1 ug/ml treated for 10 secs before larva infestation measured for 3 days by dipping method; conditions: 72 h
Plutella xylostella [6] = assay: Insecticidal activity against third-instar larval stage of Plutella xylostella (diamondback moth) in cabbage leaves assessed as mortality at 0.5 ug/ml treated for 10 secs before larva infestation measured for 3 days by dipping method; conditions: 72 h
Plutella xylostella [7] = assay: Insecticidal activity against third-instar larval stage of Plutella xylostella (diamondback moth) in cabbage leaves assessed as mortality at 5 ug/ml treated for 10 secs before larva infestation measured for 3 days by dipping method; conditions: 72 h
Plutella xylostella [8] = assay: Insecticidal activity against third-instar larval stage of Plutella xylostella (diamondback moth) in cabbage leaves assessed as mortality treated for 10 secs before larva infestation measured for 3 days by dipping method; conditions: 72 h
Plutella xylostella [9] = assay: Insecticidal activity against third-instar larval stage of Plutella xylostella (diamondback moth) in cabbage leaves assessed as mortality at 1 ug/ml treated for 10 secs before larva infestation measured for 3 days by dipping method; conditions: 72 h

| SMILES | mortality at 10 µg/mL (Plutella xylostella [1]) | mortality at 100 µg/mL (Plutella xylostella [2]) | mortality at 10 µg/mL (Plutella xylostella [3]) | mortality at 100 µg/mL (Plutella xylostella [4]) | mortality at 0.1 µg/mL (Plutella xylostella [5]) | mortality at 0.5 µg/mL (Plutella xylostella [6]) | mortality at 5 µg/mL (Plutella xylostella [7]) | LC50 (Plutella xylostella [8]) | mortality at 1 µg/mL (Plutella xylostella [9]) |
| --- | --- | --- | --- | --- | --- | --- | --- | --- | --- |
| CSCC(C)(C)NC(=O)c1c(I)cccc1C(=O)Nc1cc(F)cc(C(F)(F)F)c1 | 100% | 90% | 43% | 100% | – | – | – | – | – |
| CSCC(C)(C)NC(=O)c1c(I)cccc1C(=O)Nc1cc(C(F)(F)F)cc(C(F)(F)F)c1 | – | 71% | – | 85% | – | – | – | – | – |
| COc1cc(NC(=O)c2cccc(I)c2C(=O)NC(C)(C)CSC)cc(C(F)(F)F)c1 | – | 0% | – | 5% | – | – | – | – | – |
| COc1ccc(C(F)(F)F)cc1NC(=O)c1cccc(I)c1C(=O)NC(C)(C)CSC | – | 5% | – | 5% | – | – | – | – | – |
| CSCC(C)(C)NC(=O)c1c(I)cccc1C(=O)Nc1cc(C(F)(F)F)ccc1F | – | 41% | – | 65% | – | – | – | – | – |
| COCC(C)(C)NC(=O)c1c(I)cccc1C(=O)Nc1cccc(C(F)(F)F)c1 | 13% | 60% | 0% | 100% | – | – | – | – | – |
| COCC(C)(C)NC(=O)c1c(I)cccc1C(=O)Nc1ccc(Cl)c(C(F)(F)F)c1 | – | 5% | – | 52% | – | – | – | – | – |
| COCC(C)(C)NC(=O)c1c(I)cccc1C(=O)Nc1ccc(C#N)c(C(F)(F)F)c1 | – | 0% | – | 0% | – | – | – | – | – |
| COCC(C)(C)NC(=O)c1c(I)cccc1C(=O)Nc1ccc(OC)c(C(F)(F)F)c1 | – | 0% | – | 0% | – | – | – | – | – |
| COCC(C)(C)NC(=O)c1c(I)cccc1C(=O)Nc1cc(F)cc(C(F)(F)F)c1 | – | 10% | – | 19% | – | – | – | – | – |
| COCC(C)(C)NC(=O)c1c(I)cccc1C(=O)Nc1cc(C(F)(F)F)cc(C(F)(F)F)c1 | – | 0% | – | 0% | – | – | – | – | – |
| COCC(C)(C)NC(=O)c1c(I)cccc1C(=O)Nc1cc(C(F)(F)F)ccc1OC | – | 0% | – | 0% | – | – | – | – | – |
| COCC(C)(C)NC(=O)c1c(I)cccc1C(=O)Nc1cc(C(F)(F)F)ccc1F | – | 6% | – | 12% | – | – | – | – | – |
| CSCC(C)(C)NC(=O)c1c(I)cccc1C(=O)Nc1cccc(C(F)(F)F)c1 | 100% | 100% | 90% | – | – | – | – | – | – |
| CSCC(C)(C)NC(=O)c1c(I)cccc1C(=O)Nc1ccc(Cl)c(C(F)(F)F)c1 | – | 100% | 100% | – | 0% | 57% | 100% | 0.42 mg/L (≈ 0.736 µM) | 62% |
| CSCC(C)(C)NC(=O)c1c(I)cccc1C(=O)Nc1ccc(F)c(C(F)(F)F)c1 | – | 100% | 100% | – | 0% | 0% | 100% | – | 33% |
| CSCC(C)(C)NC(=O)c1c(I)cccc1C(=O)Nc1ccc(C#N)c(C(F)(F)F)c1 | 42% | 100% | 6% | – | – | – | – | – | – |
| Cc1cc(C(F)(C(F)(F)F)C(F)(F)F)ccc1NC(=O)c1cccc(I)c1C(=O)NC(C)(C)CS(C)(=O)=O [FLUBENDIAMIDE] | 100% | 100% | 67% | – | 20% | 90% | 100% | 0.15 mg/L (≈ 0.22 µM) | 95% |

Source: ChEMBL document CHEMBL3045090, “Synthesis, insecticidal activity, and structure-activity relationship of trifluoromethyl-containing phthalic acid diamide structures” (2010)
